Legend:
[1] = Primary screen of SERS intensities of CyNAMLA-functionalized AuNPs (compact Raman scanner); type: physicochemical; details: SERS spectra of CyNAMLA-functionalized AuNPs; excitation at 785 nm, laser power 60 mW
Protocol: FIG. 15 is a graph of the comparative surface-enhanced Raman spectroscopy (SERS) intensities of members of the CyNAMLA library measured with an excitation wavelength of 785 nm and a laser power of 60 mW in a compact Raman scanner.
The CyNAMLA compounds were adsorbed onto AuNPs having a diameter of approximately 60 nm, and the SERS properties of the resulting CyNAMLA-functionalized AuNPs were evaluated using a compact Raman scanner. Among metal nanoparticles, AuNPs are particularly suitable for in vivo applications due to their low toxicity, adaptability to bioconjugation, and reproducible signal intensity and quantification.

[2] = Characterization of the CyNAMLA library (absorbance maximum wavelengths); type: physicochemical; details: absorbance maximum wavelength of CyNAMLA library compounds
Protocol: The amine group of 21 was protected using di-tert-butyl dicarbonate then derivatized with 80 different primary amines (for structures, see FIGS. 14A-14D). After acetylation of the newly-introduced amine, the compounds were treated with a solution of TFA-DCM (1:9) to remove the tert-butylcarbamate protecting group. The deprotected amine was then coupled to lipoic acid to yield CyNAMLA derivatives with an average purity of 90% (for HPLC-determined purities, see Table 6).

| Structure (SMILES) | Raman intensity [1] | λabs (max) [2] |
| --- | --- | --- |
| CCCN1/C(=C/C=C2\CCCC(/C=C/C3=[N+](CCCNC(=O)CCCCC4CCSS4)c4ccccc4C3(C)C)=C2N(Cc2cccc(Br)c2)C(C)=O)C(C)(C)c2ccccc21.O=C([O-])C(F)(F)F (stereo not shown) [CyNAMLA-341] | 1071 | 804 nm |
| CCCN1/C(=C/C=C2\CCCC(/C=C/C3=[N+](CCCNC(=O)CCCCC4CCSS4)c4ccccc4C3(C)C)=C2N(Cc2cc(OC)c(OC)c(OC)c2)C(C)=O)C(C)(C)c2ccccc21.O=C([O-])C(F)(F)F (stereo not shown) [CyNAMLA-356] | 2333 | 806 nm |
| CCCN1/C(=C/C=C2\CCCC(/C=C/C3=[N+](CCCNC(=O)CCCCC4CCSS4)c4ccccc4C3(C)C)=C2N(Cc2ccc(OC)cc2OC)C(C)=O)C(C)(C)c2ccccc21.O=C([O-])C(F)(F)F (stereo not shown) [CyNAMLA-358] | 1121 | 804 nm |
| CCCCN(C(C)=O)C1=C(/C=C/C2=[N+](CCCNC(=O)CCCCC3CCSS3)c3ccccc3C2(C)C)CCC/C1=C\C=C1\N(CCC)c2ccccc2C1(C)C.O=C([O-])C(F)(F)F (stereo not shown) [CyNAMLA-373] | 2487 | 804 nm |
| CCCN1/C(=C/C=C2\CCCC(/C=C/C3=[N+](CCCNC(=O)CCCCC4CCSS4)c4ccccc4C3(C)C)=C2N(CC2CCCCC2)C(C)=O)C(C)(C)c2ccccc21.O=C([O-])C(F)(F)F (stereo not shown) [CyNAMLA-382] | 7947 | 804 nm |
| CCCN1/C(=C/C=C2\CCCC(/C=C/C3=[N+](CCCNC(=O)CCCCC4CCSS4)c4ccccc4C3(C)C)=C2N(Cc2cccc(OC)c2)C(C)=O)C(C)(C)c2ccccc21.O=C([O-])C(F)(F)F (stereo not shown) [CyNAMLA-387] | 3910 | 804 nm |
| CCCN1/C(=C/C=C2\CCCC(/C=C/C3=[N+](CCCNC(=O)CCCCC4CCSS4)c4ccccc4C3(C)C)=C2N(CCc2ccc(OC)cc2)C(C)=O)C(C)(C)c2ccccc21.O=C([O-])C(F)(F)F (stereo not shown) [CyNAMLA-395] | 1876 | 805 nm |
| CCCN1/C(=C/C=C2\CCCC(/C=C/C3=[N+](CCCNC(=O)CCCCC4CCSS4)c4ccccc4C3(C)C)=C2N(Cc2cccc(C)c2)C(C)=O)C(C)(C)c2ccccc21.O=C([O-])C(F)(F)F (stereo not shown) [CyNAMLA-398] | 2629 | 805 nm |
| CCCN1/C(=C/C=C2\CCCC(/C=C/C3=[N+](CCCNC(=O)CCCCC4CCSS4)c4ccccc4C3(C)C)=C2N(Cc2ccccn2)C(C)=O)C(C)(C)c2ccccc21.O=C([O-])C(F)(F)F (stereo not shown) [CyNAMLA-401] | 2920 | 804 nm |
| CCCN1/C(=C/C=C2\CCCC(/C=C/C3=[N+](CCCNC(=O)CCCCC4CCSS4)c4ccccc4C3(C)C)=C2N(CCc2cccc(F)c2)C(C)=O)C(C)(C)c2ccccc21.O=C([O-])C(F)(F)F (stereo not shown) [CyNAMLA-405] | 12149 | 805 nm |
| CCCCCCCCCCN(C(C)=O)C1=C(/C=C/C2=[N+](CCCNC(=O)CCCCC3CCSS3)c3ccccc3C2(C)C)CCC/C1=C\C=C1\N(CCC)c2ccccc2C1(C)C.O=C([O-])C(F)(F)F (stereo not shown) [CyNAMLA-407] | 3000 | 806 nm |
| CCCN1/C(=C/C=C2\CCCC(/C=C/C3=[N+](CCCNC(=O)CCCCC4CCSS4)c4ccccc4C3(C)C)=C2N(CCCN(C)C)C(C)=O)C(C)(C)c2ccccc21.O=C([O-])C(F)(F)F (stereo not shown) [CyNAMLA-427] | 1735 | 805 nm |
| CCCN1/C(=C/C=C2\CCCC(/C=C/C3=[N+](CCCNC(=O)CCCCC4CCSS4)c4ccccc4C3(C)C)=C2N(CCc2ccccc2F)C(C)=O)C(C)(C)c2ccccc21.O=C([O-])C(F)(F)F (stereo not shown) [CyNAMLA-477] | 9679 | 804 nm |
| CCCN1/C(=C/C=C2\CCCC(/C=C/C3=[N+](CCCNC(=O)CCCCC4CCSS4)c4ccccc4C3(C)C)=C2N(Cc2ccc(Cl)cc2Cl)C(C)=O)C(C)(C)c2ccccc21.O=C([O-])C(F)(F)F (stereo not shown) [CyNAMLA-531] | 5272 | 805 nm |
